The values below come from PMC10671498, “Antiproliferative and Cytotoxic Properties of Propynoyl Betulin Derivatives against Human Ovarian Cancer Cells: In Vitro Studies” (International Journal of Molecular Sciences, 2023).

Data set [1] deals with SK-OV-3 cells. Nature of the data set: Cell morphology, acridine orange staining. It is filed as cell-based, human. Particulars: SK-OV-3, 24 h, 30 µM. How it is done:
Acridine orange staining was preceded by preparation of a cell culture at a density 1 × 10^5 per well in a 24-well glass bottom plate (NEST Biotechnology, Wuxi, China). Cells were cultured for 24 h in a standard medium (1 mL), after which the medium was replaced with a new medium containing 10 µM and 30 µM of the test compounds or with 0.2% DMSO (control). Cells were incubated in the presence of test substances for 24 h in a CO2 incubator. To each of the test wells, acridine orange dissolved in PBS (the final concentration was 1 µg/mL) was added and incubated for 5 min in a CO2 incubator. After incubation, the cells were observed under a Nikon Eclipse TS-100F microscope (Nikon Instruments Europe, Amstelveen, The Netherlands). The photographs were taken with a Nikon DS-Fi1 digital camera, supported by the NIS-Elements application.

In data set [2] the test system is SK-OV-3 cells. Nature of the data set: LDH release assay, SK-OV-3. It is filed as cell-based, human. Particulars: SK-OV-3, 24 h, 10 μM and 30 μM. The method, then: In order to evaluate the cytotoxic effect, the release of LDH into the culture medium using the In Vitro Toxicology Assay Kit, Lactic Dehydrogenase Based (TOX7; Sigma Aldrich) was assessed. SK-OV-3 and OVCAR-3 cells were plated and cultured in 96-well plates (Greiner Bio-One) at the initial density of 5 × 10^3 cells per well in 100 µL of culture medium. The density of the cells was determined in the same manner as in the SRB assay. After 24 h, the media were replaced with the working solutions, which contained appropriate test compounds at concentrations of 3 μM, 10 μM, 30 μM, and control medium (0.2% DMSO). Cells were exposed to the test substances for 24 h. The background control comprised wells without cells with only control medium. To determine the maximal LDH release (high control), half of the control cultures were treated with lysis buffer. Wells with untreated cells were used as the low control of the assay. LDH activity in media was assessed according to the manufacturer’s protocol. The absorbance was measured at wavelengths of 490 nm and 690 nm (background), and the percentage of released enzyme was calculated for cells growing in the presence of compounds according to the formula:Cytotoxicity [%] = [(AT − AL)/(AH − AL)] × 100 where AT is the absorbance of treated wells; AL is low control; and AH is high control (maximal LDH release).
Cytotoxicity was expressed as a percentage of the released LDH calculated according to the difference between the absorbance of the treated and low control wells divided by the difference between the absorbance of the high control and low control wells.

In a further data set the test system is C32 cell line. Set-up: method as in PMID 33572631. Particulars: cited from earlier work.
The test system of a further data set is SNB-19 cell line. Set-up: method as in PMID 33572631. Particulars: cited from earlier work.

With `C=C(C)[C@@H]1CC[C@]2(CO)CC[C@]3(C)[C@H](CC[C@@H]4[C@@]5(C)CC[C@H](O)C(C)(C)[C@@H]5CC[C@]43C)[C@@H]12` [Compound 1, lup-20(29)-ene-3β,28-diol, reference compound], the “cell morphology (acridine orange)” value with SK-OV-3 cells [1] is reported as “typical apoptotic morphology”.
On to `C#CC(=O)OC[C@]12CC[C@@H](/C(C)=C/P(=O)(OCC)OCC)C1C1CCC3[C@@]4(C)CC[C@H](O)C(C)(C)C4CC[C@@]3(C)[C@]1(C)CC2` (stereo partly shown) [Compound 6, E-29-diethoxyphosphoryl-28-O-propynoylbetulin], for which the “cytotoxicity (released LDH)” value in the data set on SK-OV-3 cells [2] was “most cytotoxic agent”. In addition, the results for the IC50 with C32 cell line and in the data set on SNB-19 cell line were 600 nM and 430 nM, respectively.
